Active and inactive are the calls of the source.
Legend:
[1] = biological target: T1, Hexokinase HKDC1 (Homo sapiens, UniProt Q2TB90); test: SAR analysis of small molecule inhibitors of hexokinase domain containing I (HKDC1). [Related pubchem assays (depositor defined):AID493160, AID493190]; assay type: functional
T1 sequence (Q2TB90 whole entry): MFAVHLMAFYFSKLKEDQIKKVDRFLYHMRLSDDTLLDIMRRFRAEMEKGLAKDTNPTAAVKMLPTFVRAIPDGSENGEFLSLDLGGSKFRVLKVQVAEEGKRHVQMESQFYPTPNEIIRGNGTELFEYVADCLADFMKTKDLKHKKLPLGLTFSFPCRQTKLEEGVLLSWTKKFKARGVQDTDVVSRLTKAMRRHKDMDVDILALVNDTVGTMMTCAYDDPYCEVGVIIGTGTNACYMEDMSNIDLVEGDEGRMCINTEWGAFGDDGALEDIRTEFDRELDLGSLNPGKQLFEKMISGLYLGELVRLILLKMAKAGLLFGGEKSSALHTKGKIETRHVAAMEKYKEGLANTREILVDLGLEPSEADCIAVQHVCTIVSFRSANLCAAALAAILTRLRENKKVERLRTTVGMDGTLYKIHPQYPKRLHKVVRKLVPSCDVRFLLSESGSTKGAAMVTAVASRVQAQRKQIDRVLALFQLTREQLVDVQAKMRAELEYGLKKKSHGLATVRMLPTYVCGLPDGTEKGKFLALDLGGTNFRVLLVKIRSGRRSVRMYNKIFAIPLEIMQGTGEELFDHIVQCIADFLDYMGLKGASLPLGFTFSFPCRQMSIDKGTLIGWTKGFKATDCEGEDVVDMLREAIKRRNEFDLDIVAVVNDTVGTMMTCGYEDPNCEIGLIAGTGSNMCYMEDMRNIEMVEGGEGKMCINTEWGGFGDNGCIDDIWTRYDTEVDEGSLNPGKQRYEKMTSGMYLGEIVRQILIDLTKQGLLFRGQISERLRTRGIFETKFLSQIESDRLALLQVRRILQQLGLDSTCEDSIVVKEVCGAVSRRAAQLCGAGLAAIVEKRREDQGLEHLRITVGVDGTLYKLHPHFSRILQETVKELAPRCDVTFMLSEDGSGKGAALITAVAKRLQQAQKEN

[2] = biological target: T2, Hexokinase-1 (Homo sapiens, UniProt P19367); test: SAR analysis of small molecule inhibitors of hexokinase domain containing I (HKDC1) in the hexokinase 1 selectivity assay. [Related pubchem assays (depositor defined):AID493160, AID493190]; assay type: functional
T2 sequence (P19367 whole entry): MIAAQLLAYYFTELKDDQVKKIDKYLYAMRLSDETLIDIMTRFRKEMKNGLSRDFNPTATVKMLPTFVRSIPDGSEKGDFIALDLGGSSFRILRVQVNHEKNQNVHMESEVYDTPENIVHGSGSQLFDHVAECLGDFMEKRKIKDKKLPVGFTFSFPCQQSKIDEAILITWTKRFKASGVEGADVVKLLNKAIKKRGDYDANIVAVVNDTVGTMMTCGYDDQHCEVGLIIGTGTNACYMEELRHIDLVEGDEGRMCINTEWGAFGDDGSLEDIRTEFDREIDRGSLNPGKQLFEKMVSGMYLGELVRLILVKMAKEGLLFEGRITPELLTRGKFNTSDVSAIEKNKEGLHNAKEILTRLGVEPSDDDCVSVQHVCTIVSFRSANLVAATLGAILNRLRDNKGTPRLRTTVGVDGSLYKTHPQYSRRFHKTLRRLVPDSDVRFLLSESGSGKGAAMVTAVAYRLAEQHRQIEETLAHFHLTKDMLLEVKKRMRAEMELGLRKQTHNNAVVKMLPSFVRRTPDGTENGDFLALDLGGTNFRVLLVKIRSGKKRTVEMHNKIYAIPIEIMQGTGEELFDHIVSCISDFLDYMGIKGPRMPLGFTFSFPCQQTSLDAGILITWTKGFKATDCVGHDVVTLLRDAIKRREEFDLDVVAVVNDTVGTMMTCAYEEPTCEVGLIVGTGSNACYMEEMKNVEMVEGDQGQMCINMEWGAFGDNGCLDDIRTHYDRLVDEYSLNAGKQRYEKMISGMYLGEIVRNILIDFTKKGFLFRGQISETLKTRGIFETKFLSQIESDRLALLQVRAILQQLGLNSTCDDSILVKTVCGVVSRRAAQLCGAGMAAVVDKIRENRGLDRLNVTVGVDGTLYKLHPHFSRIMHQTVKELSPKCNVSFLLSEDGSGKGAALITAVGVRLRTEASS

[3] = C. albicans growth with fluconazole, confirmation, fluorescence, retest (AID 2467); assay type: functional, cell-based
[4] = biological target: ATP-dependent molecular chaperone HSP82 (Candida albicans (strain WO-1) (Yeast), UniProt C4YTQ8); test: loss of DOC-induced GRE-beta-galactosidase reporter signal, dose response, Hsp90 inhibitor project, S. cerevisiae, luminescence (AID 2400); assay type: functional, cell-based;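 further: beta-galactosidase luminescence from glucocorticoid response element reporter as proxy for Hsp90 function; inhibitor potency where signal loss means Hsp90 inhibition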
[5] = NIH-3T3 fibroblast cytotoxicity, dose response, cytotoxicity control, cell-based, fluorescence, Alamar Blue, secondary assay (AID 2327); assay type: functional;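 further: NIH-3T3 mouse fibroblasts cultured with fluconazole at 8 µg/mL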
[6] = biological target: T3, Bcl-2-related protein A1 (Mus musculus, UniProt Q07440); assay type: functional;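 further: confirmatory dose–response counterscreen on Bfl-1, used to check hits from a UBC13 polyubiquitin inhibitor campaign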
T3 sequence (Q07440 whole entry): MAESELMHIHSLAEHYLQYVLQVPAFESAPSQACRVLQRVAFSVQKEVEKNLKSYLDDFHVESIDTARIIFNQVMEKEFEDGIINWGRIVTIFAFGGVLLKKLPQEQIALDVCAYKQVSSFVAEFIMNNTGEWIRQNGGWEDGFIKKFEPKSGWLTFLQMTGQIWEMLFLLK

[7] = biological target: T4, Ubiquitin-conjugating enzyme E2 N (Homo sapiens, UniProt P61088); assay type: functional
T4 sequence (P61088 whole entry): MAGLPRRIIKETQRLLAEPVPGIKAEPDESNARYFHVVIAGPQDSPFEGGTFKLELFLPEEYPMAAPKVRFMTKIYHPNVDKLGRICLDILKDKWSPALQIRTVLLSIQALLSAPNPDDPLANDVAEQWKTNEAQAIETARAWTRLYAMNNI

[8] = test system: Vero; test: cells; assay type: functional; settings: Chlorocebus sabaeus
[9] = biological target: T5, Serine/threonine-protein phosphatase (Candida dubliniensis (strain CD36 / CBS 7987 / NCPF 3949 / NRRLY-17841) (Yeast), UniProt B9W6M3); test: calcineurin pathway inhibitors in yeast reporter, dose response, S. cerevisiae, CDRE-lacZ, luminescence, secondary (AID 2388); assay type: functional, cell-based;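 further: yeast reporter cells carrying a calcineurin-responsive lacZ construct stimulated with calcium chloride; luminescent beta-galactosidase reporter signal in whole cells rather than isolated phosphatase activity; potency for inhibition where a drop in reporter signal means calcineurin blockade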
T5 sequence (B9W6M3 whole entry): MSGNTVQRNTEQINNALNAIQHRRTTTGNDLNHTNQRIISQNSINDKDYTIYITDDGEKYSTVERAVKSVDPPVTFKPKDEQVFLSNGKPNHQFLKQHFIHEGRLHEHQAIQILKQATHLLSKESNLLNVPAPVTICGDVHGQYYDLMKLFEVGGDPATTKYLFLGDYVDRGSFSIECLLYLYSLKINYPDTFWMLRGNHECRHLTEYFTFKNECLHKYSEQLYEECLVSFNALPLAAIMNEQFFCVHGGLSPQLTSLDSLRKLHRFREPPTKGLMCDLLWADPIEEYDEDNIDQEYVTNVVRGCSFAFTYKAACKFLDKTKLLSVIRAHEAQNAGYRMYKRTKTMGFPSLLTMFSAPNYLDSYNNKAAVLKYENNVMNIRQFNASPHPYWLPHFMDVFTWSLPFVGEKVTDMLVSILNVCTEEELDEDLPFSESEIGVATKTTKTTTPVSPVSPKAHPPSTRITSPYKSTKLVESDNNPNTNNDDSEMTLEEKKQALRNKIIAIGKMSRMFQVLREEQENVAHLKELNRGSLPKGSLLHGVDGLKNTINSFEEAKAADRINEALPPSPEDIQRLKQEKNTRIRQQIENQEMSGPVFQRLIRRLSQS

[10] = biological target: T4, Ubiquitin-conjugating enzyme E2 N; assay type: functional; remark: listed apart in the source
[11] = biological target: T6, Leucine aminopeptidase (Plasmodium falciparum 3D7, UniProt Q8IL11); test: P. falciparum M17LAP inhibitors, primary screen, biochemical, fluorogenic H-Leu-NHMec substrate, 1536-well (AID 1619); assay type: functional
T6 sequence (Q8IL11 whole entry): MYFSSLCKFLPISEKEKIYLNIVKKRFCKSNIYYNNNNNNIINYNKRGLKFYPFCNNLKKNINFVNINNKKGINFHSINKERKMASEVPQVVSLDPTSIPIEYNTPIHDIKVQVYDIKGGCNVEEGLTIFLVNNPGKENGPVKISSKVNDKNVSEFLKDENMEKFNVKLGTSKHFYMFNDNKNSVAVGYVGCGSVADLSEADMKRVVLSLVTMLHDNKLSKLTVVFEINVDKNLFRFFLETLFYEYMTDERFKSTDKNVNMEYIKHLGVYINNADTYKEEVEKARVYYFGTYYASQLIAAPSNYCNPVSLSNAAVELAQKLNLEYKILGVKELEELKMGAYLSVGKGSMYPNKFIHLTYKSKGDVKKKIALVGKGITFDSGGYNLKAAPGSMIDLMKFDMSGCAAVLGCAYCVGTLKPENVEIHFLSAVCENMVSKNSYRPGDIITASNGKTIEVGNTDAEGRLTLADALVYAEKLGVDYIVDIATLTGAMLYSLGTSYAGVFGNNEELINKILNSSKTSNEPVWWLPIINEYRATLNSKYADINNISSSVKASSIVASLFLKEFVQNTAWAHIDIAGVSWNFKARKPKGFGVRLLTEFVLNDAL

[12] = biological target: Phospholipase A2 (Homo sapiens, UniProt P04054); assay type: functional;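 further: confirmatory dose-response counterscreen on phospholipase A2, testing hits that came from an ultra-high-throughput screen for ATG4B inhibitors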
[13] = biological target: T7, Carboxy-terminal domain RNA polymerase II polypeptide A small phosphatase 1 (Homo sapiens, UniProt Q9GZU7); test: inhibitors of CTDSP1, concentration-response testing, biochemical assay, absorbance-based, actives from ultra-high-throughput screening (AID 540297); assay type: functional
T7 sequence (Q9GZU7 whole entry): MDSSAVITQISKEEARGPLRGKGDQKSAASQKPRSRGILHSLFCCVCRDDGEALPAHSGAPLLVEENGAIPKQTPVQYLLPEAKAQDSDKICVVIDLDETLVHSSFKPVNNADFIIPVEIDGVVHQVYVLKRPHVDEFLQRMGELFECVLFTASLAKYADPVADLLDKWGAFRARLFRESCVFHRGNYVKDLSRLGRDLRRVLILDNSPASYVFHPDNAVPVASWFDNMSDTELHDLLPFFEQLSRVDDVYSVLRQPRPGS

[14] = biological target: T8, Cysteine protease ATG4B (Homo sapiens, UniProt Q9Y4P1); assay type: functional;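 further: Fluorescence-based dose-response confirmation assay measuring inhibition of ATG4B activity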
T8 sequence (Q9Y4P1 whole entry): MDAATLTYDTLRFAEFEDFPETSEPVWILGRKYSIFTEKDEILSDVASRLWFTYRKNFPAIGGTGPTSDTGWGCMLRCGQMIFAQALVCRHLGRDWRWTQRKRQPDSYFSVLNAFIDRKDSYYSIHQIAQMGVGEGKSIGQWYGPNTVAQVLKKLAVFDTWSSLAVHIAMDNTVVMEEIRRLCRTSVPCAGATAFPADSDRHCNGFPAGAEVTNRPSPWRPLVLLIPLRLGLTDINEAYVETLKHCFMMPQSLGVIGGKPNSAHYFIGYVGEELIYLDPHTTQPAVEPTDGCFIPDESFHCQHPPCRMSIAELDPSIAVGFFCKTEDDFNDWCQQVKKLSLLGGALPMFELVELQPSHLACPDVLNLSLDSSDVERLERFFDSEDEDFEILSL

Sequence of Phospholipase A2 (P04054 whole entry, the tested form may be a part): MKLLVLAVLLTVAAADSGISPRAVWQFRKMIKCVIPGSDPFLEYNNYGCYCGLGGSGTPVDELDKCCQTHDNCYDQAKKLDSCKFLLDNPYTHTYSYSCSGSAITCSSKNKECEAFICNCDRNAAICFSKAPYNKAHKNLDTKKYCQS
Sequence of ATP-dependent molecular chaperone HSP82 (C4YTQ8 whole entry): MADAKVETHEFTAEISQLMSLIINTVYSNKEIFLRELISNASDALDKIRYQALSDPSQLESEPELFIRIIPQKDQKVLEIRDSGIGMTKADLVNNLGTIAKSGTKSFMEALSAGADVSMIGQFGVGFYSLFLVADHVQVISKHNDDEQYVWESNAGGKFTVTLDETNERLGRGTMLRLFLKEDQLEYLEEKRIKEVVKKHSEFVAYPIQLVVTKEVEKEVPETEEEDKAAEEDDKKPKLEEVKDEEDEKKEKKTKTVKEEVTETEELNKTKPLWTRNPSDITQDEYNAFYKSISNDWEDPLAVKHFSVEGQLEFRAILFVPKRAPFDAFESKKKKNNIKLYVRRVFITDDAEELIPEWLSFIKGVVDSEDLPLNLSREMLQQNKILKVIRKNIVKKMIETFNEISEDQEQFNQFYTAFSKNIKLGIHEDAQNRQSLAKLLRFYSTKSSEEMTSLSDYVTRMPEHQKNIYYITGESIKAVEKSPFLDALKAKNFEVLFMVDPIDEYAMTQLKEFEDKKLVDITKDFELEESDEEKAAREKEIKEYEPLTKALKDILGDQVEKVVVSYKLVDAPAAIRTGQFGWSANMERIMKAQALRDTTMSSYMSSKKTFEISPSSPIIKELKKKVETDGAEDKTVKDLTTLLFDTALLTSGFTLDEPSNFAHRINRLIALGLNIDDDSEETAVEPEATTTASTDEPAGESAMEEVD

| Structure (SMILES) | IC50 [1] | IC50 [2] | IC50 [12] | IC50 [14] | further results |
| --- | --- | --- | --- | --- | --- |
| CN(C)c1ccc(/C=C/c2nc3ccccc3c(=O)n2Cc2ccccc2)cc1 | > 80 µM (inactive) | > 80 µM (inactive) |  |  |  |
| Cc1ccc(/C=C/c2nc3ccccc3c(=O)n2Cc2ccccc2)cc1 | > 80 µM (inactive) | > 80 µM (inactive) |  |  |  |
| Cc1cc(C)cc(OCC(=O)NNC(=S)NC(=O)C2CC2)c1 |  |  |  |  | EC50 [3]: 0.962 µM (active); EC50 [4]: 17.8 µM (active); EC50 [5]: 43.5 µM (active); IC50 [6]: > 20 µM (inactive); IC50 [7]: 7.6 µM (active); CC50 [8]: > 25 µM (active); EC50 [9]: > 180 µM (inactive); IC50 [10]: 7.38 µM (active) |
| CCOC(=O)c1ccc(/C=C2/C=C(c3ccccc3)N(c3ccc(Cl)c(C(=O)O)c3)C2=O)cc1 |  |  | 8.04 µM (active) | 12.3 µM (active) | IC50 [11]: 29.5 µM (active); IC50 [13]: 5.15 µM (active) |
| COc1cc2c(cc1OC)-c1cc(NCc3ccc4c(c3)OCO4)nc(=O)n1CC2 | > 80 µM (inactive) | > 80 µM (inactive) |  |  |  |
| c1ccc(CSc2nnc3c(n2)OC(c2ccco2)Nc2ccccc2-3)cc1 (stereo not given) |  |  | 40.1 µM (inactive) | 43 µM (inactive) |  |

Source: ChEMBL document CHEMBL1201862, “PubChem BioAssay data set” (2004)
